Reference: patent US7041681B2, “Compounds as opioid receptor modulators” (Janssen Pharmaceutica N.V., priority 2002, dated 2006)

Columns and labels:
mu opioid receptor = target: T1, mu opioid receptor (Rattus norvegicus, UniProt P33535); assay: Rat Brain mu Opioid Receptor Binding Assay; conditions: rat forebrain membranes, ~0.8 nM [3H]DAMGO, 25° C., 2.5 h; read-out: μ-opioid binding (Ki)
T1 construct: from tissue; host or cells: rat forebrain homogenate (Wistar rat)
Protocol: (§1) Male, Wistar rats (150–250 g, VAF, Charles River, Kingston, N.Y.) are killed by cervical dislocation, and their brains removed and placed immediately in ice cold Tris HCl buffer (50 mM, pH 7.4). The forebrains are separated from the remainder of the brain by a coronal transection, beginning dorsally at the colliculi and passing ventrally through the midbrain-pontine junction. After dissection, the forebrains are homogenized in Tris buffer in a Teflon®-glass homogenizer. The homogenize is diluted to a concentration of 1 g of forebrain tissue per 80 mL Tris and centrifuged at 39,000×g for 10 min. The pellet is resuspended in the same volume of Tris buffer containing 5 mM MgCl2 with several brief pulses from a Polytron homogenizer. This particulate preparation is used for the mu-opioid binding assays. Following incubation with the mu selective peptide ligand ˜0.8 nM [^3H]DAMGO at 25° C. for 2.5 h in a 96-well plate with total 1 ml, the plate contents are filtered through Wallac filtermat B sheets on a Tomtec 96-well harvester. The filters are rinsed three times with 2 mL of 10 mM HEPES (pH7.4), and dried in a microwave oven 1:45 min twice. To each sample area 2×40 μl of Betaplate Scint scintillation fluid (LKB) is added and analyzed on a LKB (Wallac) 1205 BetaPlate liquid scintillation counter.
(§2) The data are used to calculate either the % inhibition compared to control binding (when only a single concentration of test compound is evaluated) or a Ki value (when a range of concentrations is tested). % inhibition is calculated as: [(total dpm-test compound dpm dpm)/(total dpm-nonspecific dpm)]*100. Kd and Ki values were calculated using GraphPad PRISM data analysis program.

delta opioid receptor = target: T2, delta opioid receptor (Rattus norvegicus, UniProt P33533); assay: Rat Brain Delta Opioid Receptor Binding Assay; conditions: rat forebrain membranes, ~4 nM [3H]DPDPE, 25° C., 2.5 h; read-out: δ-opioid binding (Ki)
T2 construct: from tissue; host or cells: rat forebrain homogenate (Wistar rat)
Protocol: as §1, with “delta opioid” for “mu-opioid”, “delta” for “mu”, “˜4” for “˜0.8”, “[^3H]DPDPE” for “[^3H]DAMGO”, “total volume of” for “total”
as §2

T1 sequence (P33535 whole entry): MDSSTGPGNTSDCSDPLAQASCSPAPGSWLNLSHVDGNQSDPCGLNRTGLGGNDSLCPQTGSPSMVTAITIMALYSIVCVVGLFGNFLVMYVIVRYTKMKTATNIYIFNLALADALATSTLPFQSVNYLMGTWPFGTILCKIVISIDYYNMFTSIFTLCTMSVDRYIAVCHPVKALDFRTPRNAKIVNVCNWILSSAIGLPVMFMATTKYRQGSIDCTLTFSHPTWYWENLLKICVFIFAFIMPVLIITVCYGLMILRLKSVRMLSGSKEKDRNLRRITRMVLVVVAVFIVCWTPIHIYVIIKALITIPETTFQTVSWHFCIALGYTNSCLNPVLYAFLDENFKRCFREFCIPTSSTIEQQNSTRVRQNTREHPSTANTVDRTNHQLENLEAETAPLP
T2 sequence (P33533 whole entry): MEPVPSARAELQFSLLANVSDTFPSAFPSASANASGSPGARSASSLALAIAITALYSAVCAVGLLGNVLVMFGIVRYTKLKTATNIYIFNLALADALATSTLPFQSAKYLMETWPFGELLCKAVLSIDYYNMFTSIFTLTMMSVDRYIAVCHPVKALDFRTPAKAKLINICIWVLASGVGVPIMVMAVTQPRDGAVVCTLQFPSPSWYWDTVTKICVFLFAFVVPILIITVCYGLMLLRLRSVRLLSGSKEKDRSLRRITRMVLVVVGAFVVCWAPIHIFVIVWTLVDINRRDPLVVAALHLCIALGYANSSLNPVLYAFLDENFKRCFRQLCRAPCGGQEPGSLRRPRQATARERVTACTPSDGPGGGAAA

| Structure (SMILES) | Ki (mu opioid receptor) [nM] | Ki (delta opioid receptor) [nM] |
| --- | --- | --- |
| CCNC(=O)c1ccc(C[C@H](N)C(=O)N2CCCC[C@H]2c2nc(-c3ccccc3)c[nH]2)cc1 [Cmpd 1] | 0.15 | 20.9 |
| CN1CCN(C(=O)c2ccc(C[C@H](N)C(=O)N3CCCC[C@H]3c3nc(-c4ccccc4)c[nH]3)cc2)CC1 [Cmpd 3] | 10000 | 10000 |
| CN(C)C(=O)c1ccc(C[C@H](N)C(=O)N2CCCC[C@H]2c2nc(-c3ccccc3)c[nH]2)cc1 [Cmpd 4] | 135 | 764 |
| N[C@@H](Cc1ccc(S(N)(=O)=O)cc1)C(=O)N1CCCC[C@H]1c1nc(-c2ccccc2)c[nH]1 [Cmpd 5] | 40.8 | 6180 |
| Cc1cc(C(N)=O)cc(C)c1CC(N)C(=O)N1CCCCC1c1nc(-c2ccccc2)c[nH]1 (stereo not shown) [Cmpd 6] | 0.13 | 13.9 |
| NC(=O)c1cccc(CC(N)C(=O)N2CCCCC2c2nc(-c3ccccc3)c[nH]2)c1 (stereo not shown) [Cmpd 7] | 88.3 | 6070 |
| N#Cc1cccc(C[C@H](N)C(=O)N2CCCC[C@H]2c2nc(-c3ccccc3)c[nH]2)c1 [Cmpd 8] | 207 | 10000 |
| N[C@@H](Cc1ccc(C(=O)O)cc1)C(=O)N1CCCC[C@H]1c1nc(-c2ccccc2)c[nH]1 [Cmpd 9] | 26.8 | 606 |
| CC(=O)c1ccc(C[C@H](N)C(=O)N2CCCC[C@H]2c2nc(-c3ccccc3)c[nH]2)cc1 [Cmpd 10] | 23.6 | 933 |
| N[C@@H](Cc1ccc(C(=O)Nc2ccccc2)cc1)C(=O)N1CCCC[C@H]1c1nc(-c2ccccc2)c[nH]1 [Cmpd 13] | 27.7 | 656 |
| NC(Cc1ccc(C(=O)NCCO)cc1)C(=O)N1CCCCC1c1nc(-c2ccccc2)c[nH]1 (stereo not shown) [Cmpd 14] | 9.3 | 5140 |
| NC(=O)c1ccc(C[C@H](N)C(=O)N2CCCC[C@H]2c2nc(-c3ccccc3)c[nH]2)cc1 [Cmpd 15] | 2.6 | 65.3 |
| Nc1cc(C[C@H](N)C(=O)N2CCCC[C@H]2c2nc(-c3ccccc3)c[nH]2)ccc1O [Cmpd 16] | 115 | 5330 |
| N[C@@H](Cc1ccc(O)c([N+](=O)[O-])c1)C(=O)N1CCCC[C@H]1c1nc(-c2ccccc2)c[nH]1 [Cmpd 17] | 320 | 5120 |
| NCc1ccc(C[C@H](N)C(=O)N2CCCC[C@H]2c2nc(-c3ccccc3)c[nH]2)cc1 [Cmpd 18] | 409 | 7520 |
| Cc1cc(O)cc(C)c1CC(N)C(=O)N1CCCCC1c1nc(-c2ccccc2)no1 (stereo not shown) [Cmpd 19] | 0.14 | 46.3 |
| N[C@@H](Cc1ccc(O)cc1)C(=O)N1CCCC[C@H]1c1nc(-c2ccccc2)no1 [Cmpd 20] | 231 | 10000 |
| CNC(=O)c1ccc(C[C@H](N)C(=O)N2CCCC[C@H]2c2nc(-c3ccccc3)c[nH]2)cc1 [Cmpd 21] | 0.22 | 33.9 |
| N[C@@H](Cc1cccc(O)c1)C(=O)N1CCCC[C@H]1c1nc(-c2ccccc2)c[nH]1 [Cmpd 22] | 16 | 433 |
| N[C@@H](Cc1cc(F)c(O)c(F)c1)C(=O)N1CCCC[C@H]1c1nc(-c2ccccc2)c[nH]1 [Cmpd 24] | 9.27 | 5660 |
| CC(N)(Cc1ccc(O)cc1)C(=O)N1CCCCC1c1nc(-c2ccccc2)c[nH]1 (stereo not shown) [Cmpd 25] | 1.69 | 107 |
| CC(N)(Cc1ccc(OCc2ccccc2)cc1)C(=O)N1CCCCC1c1nc(-c2ccccc2)c[nH]1 (stereo not shown) [Cmpd 26] | 87 | 628 |
| COc1cc(C)c(C[C@H](N)C(=O)N2CCCC[C@H]2c2nc(-c3ccccc3)c[nH]2)c(C)c1 [Cmpd 27] | 8.56 | 1000 |
| CN[C@@H](Cc1c(C)cc(O)cc1C)C(=O)N1CCCC[C@H]1c1nc(-c2ccccc2)c[nH]1 [Cmpd 28] | 0.3 | 21.5 |
| Cc1cc(O)cc(C)c1C[C@H](N)C(=O)N1CCCC[C@H]1c1nc(-c2ccccc2)c(C)[nH]1 [Cmpd 29] | 0.09 | 0.51 |

| Structure (SMILES) | Ki (mu opioid receptor) [nM] | Ki (delta opioid receptor) [nM] |
| --- | --- | --- |
| Nc1ccc(CC(N)C(=O)N2CCCCC2c2nc(-c3ccccc3)c[nH]2)cc1 (stereo not shown) [Cmpd 30] | 57.2 | 1020 |
| N[C@@H](Cc1ccc(O)cc1)C(=O)N1CCCC[C@@H]1c1cccc(-c2ccccc2)c1 [Cmpd 31] | 565 | 10000 |
| N[C@@H](Cc1ccc(O)cc1)C(=O)N1CCCC[C@H]1c1cccc(-c2ccccc2)c1 [Cmpd 32] | 541 | 5900 |
| CN[C@@H](Cc1c(C)cc(OC)cc1C)C(=O)N1CCCC[C@H]1c1nc(-c2ccccc2)c[nH]1 [Cmpd 33] | 42.9 | 273 |
| Cc1cc(O)cc(C)c1CC(N)C(=O)N1CCCCC1c1nc(-c2ccccc2)c[nH]1 (stereo not shown) [Cmpd 34] | 0.05 | 1.86 |
| N#Cc1ccc(C[C@H](N)C(=O)N2CCCC[C@H]2c2nc(-c3ccccc3)c[nH]2)cc1 [Cmpd 35] | 869 | 476 |
| Cc1cc(O)cc(C)c1C[C@H](NC=O)C(=O)N1CCCC[C@H]1c1nc(-c2ccccc2)c[nH]1 [Cmpd 37] | 13.3 | 5230 |
| CN1CCN(C(=O)c2ccc(C[C@H](N)C(=O)N3Cc4ccccc4C[C@H]3c3nc(-c4ccccc4)c[nH]3)cc2)CC1 [Cmpd 102] | 1240 | 5350 |
| CN(C)C(=O)c1ccc(C[C@H](N)C(=O)N2Cc3ccccc3C[C@H]2c2nc(-c3ccccc3)c[nH]2)cc1 [Cmpd 103] | 900 | 578 |
| N[C@@H](Cc1ccc(S(N)(=O)=O)cc1)C(=O)N1Cc2ccccc2C[C@H]1c1nc(-c2ccccc2)c[nH]1 [Cmpd 104] | 592 | 174 |
| Cc1cc(C(N)=O)cc(C)c1C[C@H](N)C(=O)N1Cc2ccccc2C[C@H]1c1nc(-c2ccccc2)c[nH]1 [Cmpd 105] | 1.44 | 0.06 |
| NC(Cc1ccc(C(=O)O)cc1)C(=O)N1Cc2ccccc2CC1c1nc(-c2ccccc2)c[nH]1 (stereo not shown) [Cmpd 106] | 5780 | 5200 |
| N[C@@H](Cc1cc(F)c(O)c(F)c1)C(=O)N1Cc2ccccc2C[C@H]1c1nc(-c2ccccc2)c[nH]1 [Cmpd 109] | 167 | 12.6 |
| CC(=O)c1ccc(C[C@H](N)C(=O)N2Cc3ccccc3C[C@H]2c2nc(-c3ccccc3)c[nH]2)cc1 [Cmpd 110] | 413 | 30.4 |
| N[C@@H](Cc1ccc(C(=O)Nc2ccccc2)cc1)C(=O)N1Cc2ccccc2C[C@H]1c1nc(-c2ccccc2)c[nH]1 [Cmpd 111] | 293 | 103 |
| NC(Cc1ccc(C(=O)NCCO)cc1)C(=O)N1Cc2ccccc2CC1c1nc(-c2ccccc2)c[nH]1 (stereo not shown) [Cmpd 112] | 92.3 | 43.7 |
| CC(=O)Oc1cc(C)c(CC(N)C(=O)N2Cc3ccccc3CC2c2nc(-c3ccccc3)c[nH]2)c(C)c1 (stereo not shown) [Cmpd 113] | 0.5 | 0.2 |
| CS(=O)(=O)Nc1ccc(CC(N)C(=O)N2Cc3ccccc3CC2c2nc(-c3ccccc3)c[nH]2)cc1 (stereo not shown) [Cmpd 114] | 356 | 342 |
| NC(=O)c1ccc(CC(N)C(=O)N2Cc3ccccc3CC2c2nc(-c3ccccc3)c[nH]2)cc1 (stereo not shown) [Cmpd 115] | 23.2 | 1.3 |
| Cc1cc(OC(=O)C(C)(C)C)cc(C)c1C[C@H](N)C(=O)N1Cc2ccccc2C[C@H]1c1nc(-c2ccccc2)c[nH]1 [Cmpd 116] | 9.6 | 3.5 |
| CNC(=O)c1ccc(C[C@H](N)C(=O)N2Cc3ccccc3C[C@H]2c2nc(-c3ccccc3)c[nH]2)cc1 [Cmpd 117] | 23.6 | 1.61 |
| Cc1[nH]c([C@@H]2Cc3ccccc3CN2C(=O)[C@@H](N)Cc2ccc(C(N)=O)cc2)nc1-c1ccccc1 [Cmpd 118] | 23.1 | 0.73 |
| Cc1[nH]c([C@@H]2Cc3ccccc3CN2C(=O)[C@@H](N)Cc2ccc([N+](=O)[O-])cc2)nc1-c1ccccc1 [Cmpd 120] | 1350 | 674 |
| CC(N)(Cc1ccc(O)cc1)C(=O)N1Cc2ccccc2CC1c1nc(-c2ccccc2)c[nH]1 (stereo not shown) [Cmpd 121] | 38 | 1.32 |
| C[C@](N)(Cc1ccc(OCc2ccccc2)cc1)C(=O)N1Cc2ccccc2C[C@H]1c1nc(-c2ccccc2)c[nH]1 [Cmpd 122] | 2520 | 346 |
